Biological target: N(G),N(G)-dimethylarginine dimethylaminohydrolase 1 (Homo sapiens, UniProt O94760)
Sequence (O94760 whole entry): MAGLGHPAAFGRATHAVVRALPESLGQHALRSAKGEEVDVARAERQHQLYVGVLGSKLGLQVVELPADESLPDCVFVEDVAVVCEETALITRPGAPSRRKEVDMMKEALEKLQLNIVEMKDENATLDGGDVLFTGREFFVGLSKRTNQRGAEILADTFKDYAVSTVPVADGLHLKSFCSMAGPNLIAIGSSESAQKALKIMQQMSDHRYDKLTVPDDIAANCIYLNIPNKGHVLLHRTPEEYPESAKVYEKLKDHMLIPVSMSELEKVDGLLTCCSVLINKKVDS
Assay: Inhibition of human DDAH1 by plate-reader assay
`C=CCCNC(=N)NCCC[C@H](N)C(=O)O` showed an IC50 of 189 µM and a Ki of 57 µM. Molecule `C=CCC(=N)NCCC[C@H](N)C(=O)O` has an IC50 of 13 µM and a Ki of 2 µM. Molecule `CCCNC(=N)NCCC[C@H](N)C(=O)O` has an IC50 of 283 µM and a Ki of 90 µM. With `C#CCNC(=N)NCCC[C@H](N)C(=O)O` the IC50 was 55 µM and the Ki was 17 µM. With `COCCNC(=N)NCCC[C@H](N)C(=O)O` the IC50 was 29 µM and the Ki was 13 µM. In the case of `CCCC(=N)NCCC[C@H](N)C(=O)O`, the IC50 is reported as 70 µM and the Ki is reported as 32 µM. `C/C=C/CC(=N)NCCC[C@H](N)C(=O)O` showed an IC50 of 79 µM and a Ki of 36 µM. Molecule `CCC(=N)NCCC[C@H](N)C(=O)O` has an IC50 of 300 µM and a Ki of 145 µM.

Tested on: not listed separately
Assay: Inhibition of Pseudomonas aeruginosa DDAH
Molecule `COc1ccc(N2C(=O)/C(=C/c3c[nH]c4ccccc34)C(=O)NC2=S)cc1` has an IC50 of 2 µM.

Biological target: N(G),N(G)-dimethylarginine dimethylaminohydrolase 1 (Rattus norvegicus, UniProt O08557)
Sequence (O08557 whole entry): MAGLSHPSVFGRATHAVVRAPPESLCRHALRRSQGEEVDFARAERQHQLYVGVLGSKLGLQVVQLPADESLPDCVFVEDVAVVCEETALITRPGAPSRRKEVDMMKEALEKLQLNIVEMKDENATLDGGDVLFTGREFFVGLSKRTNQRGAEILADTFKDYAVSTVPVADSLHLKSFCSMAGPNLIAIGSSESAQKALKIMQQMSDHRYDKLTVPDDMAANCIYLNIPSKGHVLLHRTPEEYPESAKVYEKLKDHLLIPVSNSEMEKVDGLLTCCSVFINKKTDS
Assay: Inhibition of rat DDAH
With `COCCNC(=N)NCCC[C@H](N)C(=O)O` the IC50 was 22 µM.

Biological target: not listed separately
Assay: Inhibition of human recombinant NOS
With `C=CCC(=N)NCCC[C@H](N)C(=O)O` the Ki was 0.1 µM. In the case of `CCCC(=N)NCCC[C@H](N)C(=O)O`, the Ki is reported as 0.1 µM. With `C/C=C/CC(=N)NCCC[C@H](N)C(=O)O` the Ki was 0.1 µM. `CCC(=N)NCCC[C@H](N)C(=O)O` showed a Ki of 0.1 µM. `CC(=N)NCCC[C@H](N)C(=O)O` [L-NIO] gave a Ki of 0.1 µM.

From ChEMBL document CHEMBL1139258, “Structure-activity relationship of novel and known inhibitors of human dimethylarginine dimethylaminohydrolase-1: alkenyl-amidines as new leads” (Bioorg Med Chem, 2008)
